Seven molecules from patent publication US12173018B2, “Penicillin-binding protein inhibitors” (priority 2018, dated 2024) can be followed below.

Where two headings read alike, the source gives them in different places. Where only a bound is given, the exact number is not on record here.

In assay [1] the test system is P. aeruginosa PAO1. Put plainly: Broth microdilution MIC, P. aeruginosa PAO1. It is filed as cell-based. As to conditions: Pseudomonas aeruginosa. On the procedure: (§1) To determine the ability of test compounds to potentiate the inhibition of the growth of bacterial strains, classic cell based broth microdilution minimum inhibitory concentration (MIC) assays were employed. MIC assays are performed according to CLSI methods except where otherwise noted (CLSI, 2011 and CLSI, 2009). The reference type strain E. coli ATCC 25922, the wild-type parent strain E. coli AG100, the hyper-permeable E. coli 901C and E. coli D22 and the E. coli AG100A strain lacking the acrAB efflux pump encoding genes were used to determine the ability of the PBP inhibitors to penetrate the outer membrane of gram-negative bacteria and inhibit bacterial growth. […] The P. aeruginosa PAO1, P. aeruginosa ATCC 27853 and A. baumannii ATCC 19606, along with the hyper-permeable P. aeruginosa ATCC 35151 and an engineered efflux pump-compromised strain of P. aeruginosa (ΔmexAB-oprM) were used to determine the ability of PBP inhibitors to penetrate the outer membrane of P. aeruginosa and A. baumannii and assess antibacterial activity against these important gram-negative organisms.
(§2) Briefly, cryo-preserved bacterial cultures of challenge strains are streaked for isolation on appropriate agar medium, in this case Mueller Hinton II agar. Following incubation to allow growth of the colonies, plates are sealed with parafilm and stored refrigerated for up to two weeks. For preparation of assay inoculum and to ensure low variability, at least 5 colonies are picked from the agar plates with an inoculating loop and aseptically transferred to a culture tube containing 3 mL of Mueller-Hinton Broth (supplemented with divalent cations to required levels based on Manufacturers' certification). The broth culture is grown for 3-5 hours at 37° C. with shaking at 200 rpm. Meanwhile, 2-fold serial dilutions of test compounds are conducted in a 96 well plate with a final volume of 75 μL per well at 2-fold the final desired concentration. After the dilution plates are set up the growing cultures are then diluted in a cuvette containing MH II broth and the optical density is measured at 600 nm. The Inoculum is diluted such that 75 μL of this culture in Mueller-Hinton Broth results in a starting bacterial concentration of 5×10^5 CFU/mL when added to the dilution plates. The plates are incubated for 16-20 hours at 37° C. The MIC values are read visually as the lowest concentration well with no bacterial growth.
(In general: Dilution methods test growth across graded concentrations, often in twofold steps.)

The test system of assay [2] is K. pneumoniae SI-117. Put plainly: microbe, parasite or virus in culture. In kind it is cell-based. Conditions: Klebsiella pneumoniae, SI117, read-out: MIC K. pneumoniae SI-117. An outline of the steps:
(§3)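 Visual MIC readout after 16-20 h at 37° C in CLSI-format microdilution. Compounds tested as 2-fold series against a 5×10^5 CFU/mL inoculum in cation-supplemented Mueller-Hinton broth.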

For assay [3], the system named is K. pneumoniae UMM. Put plainly: microbe, parasite or virus in culture. It is filed as cell-based. Conditions: Klebsiella pneumoniae; K. pneumoniae UMM producing SHV-5 and KPC-2; read-out: MIC K. pneumoniae UMM. An outline of the steps: as §3
Assay [4] has as its system E. coli AG100A. Put plainly: microbe, parasite or virus in culture. It is filed as cell-based. As to conditions: Escherichia coli, read-out: MIC E. coli AG100A. An outline of the steps: as §3
Assay [5] relates to E. coli D22. The assay can be described thus: microbe, parasite or virus in culture. It is filed as cell-based. Conditions: Escherichia coli; hyper-permeable E. coli D22, broth microdilution; read-out: MIC E. coli D22. An outline of the steps:
as §3

Assay [6] concerns P. aeruginosa (ΔmexAB-oprM). The assay can be described thus: microbe, parasite or virus in culture. In kind it is cell-based. Conditions: Pseudomonas aeruginosa, read-out: MIC P. aeruginosa ΔmexAB-OprM. An outline of the steps:
as §3

Assay [7] relates to E. coli 901C. The assay can be described thus: microbe, parasite or virus in culture. Conditions: Escherichia coli; hyper-permeable E. coli 901C, broth microdilution; read-out: MIC E. coli 901C. In kind it is cell-based. An outline of the steps: as §3
The test system of assay [8] is P. aeruginosa ATCC 35151. The assay can be described thus: microbe, parasite or virus in culture. Conditions: Pseudomonas aeruginosa, ATCC35151; hyper-permeable P. aeruginosa ATCC 35151; read-out: MIC P. aeruginosa ATCC 35151. It is filed as cell-based. An outline of the steps: as §3
For assay [9], the system named is K. pneumoniae 848844. Put plainly: microbe, parasite or virus in culture. In kind it is cell-based, Klebsiella pneumoniae. Conditions: Klebsiella pneumoniae; K. pneumoniae 848844 producing SHV-11 and KPC-2; read-out: MIC K. pneumoniae 848844. An outline of the steps: as §3
Assay [10] concerns E. coli ATCC 25922. Put plainly: Broth microdilution MIC, E. coli ATCC 25922. In kind it is cell-based. As to conditions: Escherichia coli. An outline of the steps: as §3
For assay [11], the system named is A. baumannii ATCC 19606. Put plainly: Broth microdilution MIC, A. baumannii ATCC 19606. It is filed as cell-based. Conditions: Acinetobacter baumannii. On the procedure:
as §1, §2

Assay [12] concerns E. coli AG100. The assay can be described thus: Broth microdilution MIC, E. coli AG100 (wild-type parent). In kind it is cell-based. As to conditions: Escherichia coli; wild-type parent E. coli AG100, broth microdilution; read-out: MIC E. coli AG100. An outline of the steps:
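Broth microdilution in cation-supplemented Mueller-Hinton broth, 2-fold serial compound dilutions, inoculum 5×10^5 CFU/mL from 3-5 h log culture.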

Assay [13] deals with E. coli PBP3 (Escherichia coli (strain K12), UniProt P0AD68). The assay can be described thus: E. coli PBP3 Bocillin-FL fluorescence polarization competition binding assay. An outline of the steps: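 Steps: purified PBP (1.5 μM final) mixed with compound (0–1000 μM) in 50 mM Hepes pH 8.0, 300 mM NaCl, 5% glycerol; Bocillin-FL added to 0.1 μM; FP (ex 490, em 520 nm) followed for 60 min. Concentration reducing Bocillin-FL binding reported as EC50.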
(In general: Polarisation of emitted light reports the rotation of a fluorescent probe.)

The mark [14] stands for this setting: P. aeruginosa PAO1, broth microdilution, read-out: MIC P. aeruginosa PAO1.
The mark [15] stands for this setting: ATCC25922, E. coli ATCC 25922, broth microdilution, read-out: MIC E. coli 25922.
[16] abbreviates: ATCC19606, A. baumannii ATCC 19606, broth microdilution, read-out: MIC A. baumannii ATCC 19606.
Where [17] appears, read: fluorescence polarization competition binding with Bocillin-FL, read-out: E. coli K12 PBP3 Potency.

E. coli PBP3, sequence (P0AD68 whole entry): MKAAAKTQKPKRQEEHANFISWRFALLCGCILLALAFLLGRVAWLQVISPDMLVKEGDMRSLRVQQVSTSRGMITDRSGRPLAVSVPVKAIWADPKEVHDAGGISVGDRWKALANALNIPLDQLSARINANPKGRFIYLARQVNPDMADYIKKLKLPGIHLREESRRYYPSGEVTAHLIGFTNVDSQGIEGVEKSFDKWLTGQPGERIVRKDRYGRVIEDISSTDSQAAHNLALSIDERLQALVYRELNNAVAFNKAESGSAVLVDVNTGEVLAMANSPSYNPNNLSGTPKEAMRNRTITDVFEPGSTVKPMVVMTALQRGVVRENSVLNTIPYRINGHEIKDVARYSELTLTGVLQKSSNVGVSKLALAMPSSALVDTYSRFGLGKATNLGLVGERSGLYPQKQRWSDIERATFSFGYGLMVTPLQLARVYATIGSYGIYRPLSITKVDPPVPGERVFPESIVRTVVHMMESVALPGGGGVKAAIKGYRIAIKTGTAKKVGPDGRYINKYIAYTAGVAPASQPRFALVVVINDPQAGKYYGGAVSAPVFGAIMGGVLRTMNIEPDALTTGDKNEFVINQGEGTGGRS

For the molecule `CCN1CCN(C(=O)NC(C(=O)N[C@H]2Cc3ccc(F)c(C(=O)O)c3OB2O)c2ccc(O)cn2)C(=O)C1=O` (stereo partly drawn) [Example 128, (3R)-3-(2-(4-ethyl-2,3-dioxopiperazine-1-carboxamido)-2-(5-hydroxypyridin-2-yl)acetamido)-7-fluoro-2-hydroxy-3,4-dihydro-2H-benzo[e][1,2]oxaborinine-8-carboxylic acid], the MIC in assay [1] (setting [14]) is above 128 µg/mL; in assay [2], 8 to 16 µg/mL; in assay [3] it was 8 to 16 µg/mL; in assay [4] it was 2 to 4 µg/mL; in assay [5], 2 to 4 µg/mL; in assay [6] it was 8 to 16 µg/mL. The MIC in assay [7] is 0.5 to 1 µg/mL; in [8], 0.5 to 1 µg/mL; in [9], 32 to 64 µg/mL; in assay [10] (setting [15]), 32 to 64 µg/mL; in assay [11] (setting [16]), above 128 µg/mL; in assay [12], 8 to 16 µg/mL. In addition, in assay [13], the EC50 lay within 30 to 500 µM.
Regarding `CCN1CCN(C(=O)N[C@@H](C(=O)N[C@H]2Cc3cccc(C(=O)O)c3OB2O)c2ccc(S(N)(=O)=O)c(OC)c2)C(=O)C1=O` [Example 169, (R)-3-((R)-2-(4-ethyl-2,3-dioxopiperazine-1-carboxamido)-2-(3-methoxy-4-sulfamoylphenyl)acetamido)-2-hydroxy-3,4-dihydro-2H-benzo[e][1,2]oxaborinine-8-carboxylic acid], the MIC was above 128 µg/mL in assay [1] (setting [14]); above 128 µg/mL in [2]; above 128 µg/mL in assay [3]; 8 to 16 µg/mL in assay [4]; 2 to 4 µg/mL in assay [5]; 8 to 16 µg/mL in [6]. Besides, the MIC in assay [7] was below 0.25 µg/mL; in assay [8], 0.5 to 1 µg/mL; in assay [9] it was above 128 µg/mL; in assay [10] (setting [15]) it was 32 to 64 µg/mL; in [11] (setting [16]), above 128 µg/mL; in [12] it was 32 to 64 µg/mL. The molecule also registered an EC50 in assay [13] of 30 to 500 µM.
As for `NS(=O)(=O)c1ccc([C@@H](NC(=O)N2CCN(CCBr)C(=O)C2=O)C(=O)N[C@H]2Cc3cccc(C(=O)O)c3OB2O)cc1O` [Example 172, (R)-3-((R)-2-(4-(2-bromoethyl)-2,3-dioxopiperazine-1-carboxamido)-2-(3-hydroxy-4-sulfamoylphenyl)acetamido)-2-hydroxy-3,4-dihydro-2H-benzo[e][1,2]oxaborinine-8-carboxylic acid], the MIC is above 128 µg/mL in [1] (PAO1, read-out: MIC P. aeruginosa PAO1); above 128 µg/mL in assay [2]; 32 to 64 µg/mL in [3]; 8 to 16 µg/mL in assay [4]; 8 to 16 µg/mL in assay [5]; 2 to 4 µg/mL in assay [6]. Besides, the MIC was 0.5 to 1 µg/mL in assay [7]; below 0.25 µg/mL in assay [8]; above 128 µg/mL in assay [9]; 32 to 64 µg/mL in [10] (ATCC25922, read-out: MIC E. coli 25922); above 128 µg/mL in assay [11] (ATCC19606, read-out: MIC A. baumannii ATCC 19606); 32 to 64 µg/mL in assay [12]. In assay [13] (setting [17]), the EC50 is below 30 µM.
With `CCN1CCN(C(=O)NC(C(=O)N[C@H]2Cc3c(F)cc(F)c(C(=O)O)c3OB2O)c2ccc(O)c(O)c2Cl)C(=O)C1=O` (stereo partly drawn) [Example 185, (3R)-3-(2-(2-chloro-3,4-dihydroxyphenyl)-2-(4-ethyl-2,3-dioxopiperazine-1-carboxamido)acetamido)-5,7-difluoro-2-hydroxy-3,4-dihydro-2H-benzo[e][1,2]oxaborinine-8-carboxylic acid], the MIC is above 128 µg/mL in assay [1] (setting [14]); 2 to 4 µg/mL in assay [2]; 2 to 4 µg/mL in assay [3]; 2 to 4 µg/mL in assay [4]; 2 to 4 µg/mL in assay [5]; 0.5 to 1 µg/mL in assay [6]. In addition, the MIC in assay [7] was 0.5 to 1 µg/mL; in assay [8] it was below 0.25 µg/mL; in assay [9], 0.5 to 1 µg/mL; in assay [10] (setting [15]), 8 to 16 µg/mL; in assay [11] (setting [16]), above 128 µg/mL; in assay [12], 2 to 4 µg/mL. In addition, the EC50 in [13] lay within 30 to 500 µM.
For the molecule `CCN1CCN(C(=O)NC(C(=O)N[C@H]2Cc3cccc(C(=O)O)c3OB2O)c2ccc(S(N)(=O)=O)cc2F)C(=O)C1=O` (stereo partly drawn) [Example 203, (3R)-3-(2-(4-ethyl-2,3-dioxopiperazine-1-carboxamido)-2-(2-fluoro-4-sulfamoylphenyl)acetamido)-2-hydroxy-3,4-dihydro-2H-benzo[e][1,2]oxaborinine-8-carboxylic acid], the MIC was above 128 µg/mL in [1] (setting [14]); above 128 µg/mL in assay [2]; 32 to 64 µg/mL in assay [3]; 2 to 4 µg/mL in assay [4]; 2 to 4 µg/mL in [5]; 8 to 16 µg/mL in assay [6]. For the same molecule, the MIC in assay [7] is below 0.25 µg/mL; in [8] it was 0.5 to 1 µg/mL; in assay [9], above 128 µg/mL; in assay [10] (setting [15]), 32 to 64 µg/mL; in assay [11] (setting [16]) it was above 128 µg/mL; in assay [12], 32 to 64 µg/mL. The EC50 in assay [13] (setting [17]) is below 30 µM.
On to `O=C(O)c1cccc2c1OB(O)[C@@H](NC(=O)C(NC(=O)N1C[C@@H]3CCCN3C(=O)C1=O)c1ccc(O)c(O)c1Cl)C2` (stereo partly drawn) [Example 222, (3R)-3-(2-(2-chloro-3,4-dihydroxyphenyl)-2-((S)-3,4-dioxooctahydropyrrolo[1,2-a]pyrazine-2-carboxamido)acetamido)-2-hydroxy-3,4-dihydro-2H-benzo[e][1,2]oxaborinine-8-carboxylic acid], for which the MIC in [1] (setting [14]) is 8 to 16 µg/mL; in assay [2], above 128 µg/mL; in assay [3] it was 32 to 64 µg/mL; in [4], 32 to 64 µg/mL; in assay [5], above 128 µg/mL; in assay [6], below 0.25 µg/mL. Further, the MIC in assay [7] was 32 to 64 µg/mL; in [8] it was below 0.25 µg/mL; in assay [9] it was above 128 µg/mL; in assay [10] (setting [15]) it was above 128 µg/mL; in [11] (setting [16]), 32 to 64 µg/mL; in assay [12], 32 to 64 µg/mL. In [13], the EC50 lay in the range of 30 to 500 µM.
On to `NCCN1CCN(C(=O)N[C@H](C(=O)N[C@H]2Cc3ccc(F)c(C(=O)O)c3OB2O)c2ncc(O)cc2F)C(=O)C1=O` [Example 231, (R)-3-((S)-2-(4-(2-aminoethyl)-2,3-dioxopiperazine-1-carboxamido)-2-(3-fluoro-5-hydroxypyridin-2-yl)acetamido)-7-fluoro-2-hydroxy-3,4-dihydro-2H-benzo[e][1,2]oxaborinine-8-carboxylic acid], for which the MIC in [1] (setting [14]) was above 128 µg/mL; in assay [2], 32 to 64 µg/mL; in [3], 32 to 64 µg/mL; in assay [4] it was 8 to 16 µg/mL; in assay [5] it was 8 to 16 µg/mL; in assay [6] it was 8 to 16 µg/mL. The MIC in [7] was 2 to 4 µg/mL; in assay [8] it was 0.5 to 1 µg/mL; in assay [9], 32 to 64 µg/mL; in assay [10] (setting [15]), 32 to 64 µg/mL; in assay [11] (setting [16]), above 128 µg/mL; in [12], 32 to 64 µg/mL. This molecule showed an EC50 in assay [13] of 30 to 500 µM.
